Data on 16 compounds can be found in US20250276074A1, “BRM AND BRG1 TARGETING ANTIBODY-DRUG CONJUGATES AND METHODS OF USE THEREOF” (Prelude Therapeutics Incorporated, priority 2024, published 2025).

In series [1] the target is T1, SMARCA2 (Homo sapiens, UniProt P51531). The experiment in a line: SMARCA2 HiBiT degradation assay in HeLa cells. The series is classed as cell-based. Conditions: 18 hours. As to the method:
(§1) HiBiT peptide knock-in of SMARCA2 in LgBiT expressing HEK293T cells was performed by CRISPR-mediated tagging system as described Promega. The homozygous HiBiT knock-in on c-terminus SMARCA2 was confirmed by sanger sequence. SMARCA2-HiBiT knock-in Hela monoclonal cell (CS302366) and SMARCA4-HiBiT knock-in Hela monoclonal cell (CS3023226) were purchased from Promega. The heterozygous HiBiT-knock-in was confirmed by sanger sequence in both SMARCA2-HiBiT and SMARCA4-HiBiT monoclonal cells.
(§2) Dispense 10ul aliquot of prepared Hela-SMARCA2-HiBiT or Hela-SMARCA4-HiBiT cells (1:1 ratio of cells:Trypan Blue (#1450013, Bio-Rad)) onto cell counting slide (#145-0011, Bio-Rad) and obtain cell density and cell viability using cell counter (TC20, Bio-Rad). Remove appropriate volume of resuspended cells from culture flask to accommodate 2500 cells/well @20 μL/well. Transfer Hela-HiBiT cells to 50 mL conical (#430290, Corning). Spin down at 1000 rpm for 5 min using tabletop centrifuge (SPINCHRON 15, Beckman). Discard supernatant and resuspend cell pellet in modified EMEM (#30-2003, ATCC) cell culture media containing 10% FBS (F2422-500ML, Sigma), and 1× Penicillin/Streptomycin (200 g/L) (30-002-CI, Corning) to a cell density of 125,000 cells/mL. Dispense […] of resuspended Hela-HiBit cells per well in 384-well TC treated plate (#12-565-343, Thermo Scientific) using standard cassette (#50950372, Thermo Scientific) on Multidrop Combi (#5840310, Thermo Scientific) inside laminar flow cabinet.
(§3) The degrader compounds of Table 4 were dissolved in DMSO to make 10 mM stock and 3-fold series dilutions were further conducted keeping the highest concentration 10 μM. Dispense test compounds onto plates using digital liquid dispenser (D300E, Tecan). Incubate plates in humidified tissue culture incubator at 37° C. for 18 hours. Add […] of prepared Nano-Glo® HiBiT Lytic detection buffer (N3050, Promega) to each well of 384-well plate using small tube cassette (#24073295, Thermo Scientific) on Multidrop Combi, incubate at room temperature for 30-60 min. Read plates on microplate reader (Envision 2105, PerkinElmer) using 384 well Ultra-Sensitive luminescence mode. Raw data files and compound information reports are swept into centralized data lake and deconvoluted using automated scripts designed by TetraScience, Inc. Data analysis, curve-fitting and reporting done in Dotmatics Informatics Suite using Screening Ultra module.
Background: HiBiT is a short tag that completes a luciferase, so light tracks the accessible tagged protein.

In series [2] the target is T2, SMARCA4 (Homo sapiens, UniProt P51532). The experiment in a line: SMARCA4 HiBiT degradation assay in HeLa cells. The series is classed as cell-based. Conditions: 18 hours; for Dmax: HeLa. The arrangement: SMARCA4-HiBiT knock-in Hela monoclonal cell (CS3023226) were purchased from Promega; host or cells: HeLa SMARCA4-HiBiT knock-in monoclonal cells (heterozygous). The method, then:
as §1, §2, §3

Series [3] relates to SMARCA4 mutated cancer cells. Particulars: Vangamudi et al. Cancer Res 2015; cited from earlier work.
For series [4], the system named is PSMA+ prostate cancer CDX (LNCaP). The experiment in a line: Anti-tumor efficacy in PSMA+ prostate cancer CDX (LNCaP). Conditions: castrated male CB17 SCID mice, 10 mg/kg s.c. Q3D, day 21. The series is classed as in vivo.
Experimental: (§4) In-life evaluation was conducted using 6-8-week-old male CB17 SCID mice that were subcutaneously inoculated with LNCaP tumor cells mixed 1:1 with Matrigel. Mice were castrated 3 days prior to randomization, which was done when tumors for efficacy evaluation would reach 100 mm^3-400 mm^3. […] Tumors were subsequently homogenized, and proteins were extracted before evaluating SMARCA2 and SMARCA4 expression by western blot.
The subject of series [5] is PSMA negative PC3 tumors. The experiment in a line: Tumor growth inhibition in PSMA negative PC3 tumors, weekly administration. The series is classed as in vivo, mouse. Conditions: FIGS. 3A-3B.
The nature of series [6]: Body weight and survival of mice in the PC3 tumor study. The series is classed as in vivo, mouse. Particulars: weekly administration, FIGS. 3A-3B.
Series [7] in a line: Tolerability in the LNCaP CDX efficacy study. Conditions: CB17 SCID mice with LNCaP tumors.
Experimental: In-life evaluation was conducted using 6-8-week-old male CB17 SCID mice that were subcutaneously inoculated with LNCaP tumor cells mixed 1:1 with Matrigel. Mice were castrated 3 days prior to randomization, which was done when tumors for efficacy evaluation would reach 100 mm^3-400 mm^3.
For series [8], the target named is T1, SMARCA2. The experiment in a line: Single dose pharmacodynamics, SMARCA2 in LNCaP tumors by western blot. The series is classed as in vivo. Set-up: from tissue; host or cells: LNCaP xenograft tumours from CB17 SCID mice. Conditions: mouse, LNCaP tumors in mice, tumors collected 1-5 days later, read-out: maximal degradation of SMARCA2. Background: Immunoblotting shows a protein as a band on a membrane.
Experimental: as §4

Series [9] deals with T2, SMARCA4. In words: Single dose pharmacodynamics, SMARCA4 in LNCaP tumors by western blot. The series is classed as in vivo. Set-up: from tissue; host or cells: LNCaP xenograft tumours from CB17 SCID mice. Particulars: mouse, LNCaP tumors in mice, tumors collected 1-5 days later, read-out: maximal degradation of SMARCA4.
Experimental: as §4
[10] abbreviates: iv, single dose 20 mg/kg i.v. infusion.

Each structure is given as a SMILES string.

T2 sequence (P51532 whole entry): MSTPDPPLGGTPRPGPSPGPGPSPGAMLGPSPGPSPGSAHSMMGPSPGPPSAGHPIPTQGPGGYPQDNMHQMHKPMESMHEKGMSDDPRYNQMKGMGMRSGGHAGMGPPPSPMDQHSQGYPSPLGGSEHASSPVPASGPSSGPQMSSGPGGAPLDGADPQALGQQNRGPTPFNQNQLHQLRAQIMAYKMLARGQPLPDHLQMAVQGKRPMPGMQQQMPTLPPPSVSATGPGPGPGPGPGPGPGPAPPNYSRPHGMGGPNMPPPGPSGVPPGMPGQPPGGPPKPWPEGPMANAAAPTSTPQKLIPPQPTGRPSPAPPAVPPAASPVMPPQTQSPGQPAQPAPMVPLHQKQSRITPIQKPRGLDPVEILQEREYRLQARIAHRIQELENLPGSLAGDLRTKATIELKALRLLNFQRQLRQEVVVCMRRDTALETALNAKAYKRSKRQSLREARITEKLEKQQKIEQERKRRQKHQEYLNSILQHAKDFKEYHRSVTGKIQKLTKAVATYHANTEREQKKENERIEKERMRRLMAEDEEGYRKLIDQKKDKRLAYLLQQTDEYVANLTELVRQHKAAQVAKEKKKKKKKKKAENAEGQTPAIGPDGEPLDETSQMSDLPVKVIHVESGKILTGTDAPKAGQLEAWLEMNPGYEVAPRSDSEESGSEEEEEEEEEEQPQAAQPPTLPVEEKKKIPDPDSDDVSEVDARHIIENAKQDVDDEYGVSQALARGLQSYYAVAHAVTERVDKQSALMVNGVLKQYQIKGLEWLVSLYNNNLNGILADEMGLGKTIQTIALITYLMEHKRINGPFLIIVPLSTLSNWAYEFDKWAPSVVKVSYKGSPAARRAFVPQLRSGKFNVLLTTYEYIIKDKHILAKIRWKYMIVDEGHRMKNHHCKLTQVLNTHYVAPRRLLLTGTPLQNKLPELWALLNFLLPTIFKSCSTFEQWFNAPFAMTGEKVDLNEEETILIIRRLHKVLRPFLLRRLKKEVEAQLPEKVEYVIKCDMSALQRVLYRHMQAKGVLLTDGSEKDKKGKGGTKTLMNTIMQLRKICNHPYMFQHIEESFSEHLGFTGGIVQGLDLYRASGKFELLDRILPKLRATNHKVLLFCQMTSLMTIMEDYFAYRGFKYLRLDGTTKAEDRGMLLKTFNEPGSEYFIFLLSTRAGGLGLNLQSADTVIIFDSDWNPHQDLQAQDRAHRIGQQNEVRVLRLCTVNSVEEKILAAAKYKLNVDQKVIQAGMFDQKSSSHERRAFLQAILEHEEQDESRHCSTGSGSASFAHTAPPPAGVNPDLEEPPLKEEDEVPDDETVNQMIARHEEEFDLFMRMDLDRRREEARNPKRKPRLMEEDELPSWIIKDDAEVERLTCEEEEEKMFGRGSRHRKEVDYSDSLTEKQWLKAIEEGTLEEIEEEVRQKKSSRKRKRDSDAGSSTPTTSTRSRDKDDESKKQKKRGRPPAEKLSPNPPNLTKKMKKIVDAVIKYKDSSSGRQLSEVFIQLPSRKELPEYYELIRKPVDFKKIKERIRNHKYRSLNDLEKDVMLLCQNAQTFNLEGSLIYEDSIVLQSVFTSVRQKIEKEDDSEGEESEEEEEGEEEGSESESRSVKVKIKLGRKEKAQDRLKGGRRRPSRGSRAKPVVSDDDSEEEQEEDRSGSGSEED
T1 sequence (P51531 whole entry): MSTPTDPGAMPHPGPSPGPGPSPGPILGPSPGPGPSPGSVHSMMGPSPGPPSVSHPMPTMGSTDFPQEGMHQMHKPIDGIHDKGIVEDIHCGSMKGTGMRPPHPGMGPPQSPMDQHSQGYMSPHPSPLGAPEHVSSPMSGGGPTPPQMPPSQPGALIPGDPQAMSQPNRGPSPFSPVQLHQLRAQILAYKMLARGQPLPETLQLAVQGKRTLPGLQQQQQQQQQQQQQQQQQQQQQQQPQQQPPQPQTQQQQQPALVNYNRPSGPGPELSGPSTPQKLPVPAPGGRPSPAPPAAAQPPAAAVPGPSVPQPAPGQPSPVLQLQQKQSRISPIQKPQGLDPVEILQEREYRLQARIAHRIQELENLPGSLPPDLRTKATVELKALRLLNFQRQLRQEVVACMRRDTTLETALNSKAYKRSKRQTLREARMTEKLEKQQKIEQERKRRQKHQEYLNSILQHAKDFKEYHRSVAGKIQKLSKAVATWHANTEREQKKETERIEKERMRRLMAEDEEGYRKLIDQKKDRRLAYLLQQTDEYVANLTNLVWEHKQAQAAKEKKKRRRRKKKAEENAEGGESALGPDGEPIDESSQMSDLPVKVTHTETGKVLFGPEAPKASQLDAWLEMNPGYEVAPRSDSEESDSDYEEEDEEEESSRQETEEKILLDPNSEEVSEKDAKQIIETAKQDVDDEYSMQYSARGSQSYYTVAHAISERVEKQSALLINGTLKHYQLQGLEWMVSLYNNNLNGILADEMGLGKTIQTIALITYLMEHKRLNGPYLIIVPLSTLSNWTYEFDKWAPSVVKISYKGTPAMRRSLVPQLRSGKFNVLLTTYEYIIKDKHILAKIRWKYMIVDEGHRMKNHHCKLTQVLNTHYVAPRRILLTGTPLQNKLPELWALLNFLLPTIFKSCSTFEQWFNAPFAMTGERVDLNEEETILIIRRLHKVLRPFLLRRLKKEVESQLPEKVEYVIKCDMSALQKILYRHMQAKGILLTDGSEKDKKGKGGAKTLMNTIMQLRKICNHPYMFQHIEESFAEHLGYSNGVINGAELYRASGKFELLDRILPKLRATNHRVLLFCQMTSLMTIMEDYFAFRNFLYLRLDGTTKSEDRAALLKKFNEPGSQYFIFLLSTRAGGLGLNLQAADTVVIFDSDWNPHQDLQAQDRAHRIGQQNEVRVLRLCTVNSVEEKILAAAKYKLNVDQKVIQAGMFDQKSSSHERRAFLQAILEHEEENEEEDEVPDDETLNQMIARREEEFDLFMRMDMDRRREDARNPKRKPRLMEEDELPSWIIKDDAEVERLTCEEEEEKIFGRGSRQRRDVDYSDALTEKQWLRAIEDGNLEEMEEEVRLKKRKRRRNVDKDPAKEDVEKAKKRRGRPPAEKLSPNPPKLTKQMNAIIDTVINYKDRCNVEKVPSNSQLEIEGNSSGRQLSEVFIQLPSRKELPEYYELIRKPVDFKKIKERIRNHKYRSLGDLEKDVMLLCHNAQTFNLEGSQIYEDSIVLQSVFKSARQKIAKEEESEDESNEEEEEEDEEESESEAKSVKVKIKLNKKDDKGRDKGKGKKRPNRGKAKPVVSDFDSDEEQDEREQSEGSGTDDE

Take `Cc1ncsc1-c1ccc([C@H](C)NC(=O)[C@@H]2C[C@@H](O)CN2C(=O)[C@@H](c2cc(OCCN3CCC(N4CCN5c6cc(-c7ccccc7O)nnc6N[C@@H](C)[C@H]5C4)CC3)no2)C(C)C)cc1` [Compound 14]: the DC50 in series [1] and in series [2] was 1 to 10 nM throughout. Further, the Dmax in [1] and in series [2] was 50 to 90% throughout.

For the compound `O=C(/C=C/N1C[C@H]2C[C@@H]1CN2c1ccccn1)c1ccccc1O` [PFI-3], the “effects on cell proliferation inhibition” value in series [3] was “none to minor effects”.

As to `Cc1ncsc1-c1ccc([C@H](C)NC(=O)[C@@H]2C[C@@H](O)CN2C(=O)[C@@H](c2cc(OCCN3CCC(CN4CCN5c6cc(-c7ccccc7O)nnc6NC[C@H]5C4)CC3)no2)C(C)C)cc1` [Compound 2], the “tumor growth inhibition (TGI)” value in series [4] was 93%. Besides, the tumor growth inhibition entry in series [5] is recorded as “efficacious”. Also, in series [6], the “mouse body weight loss and death” value is “caused mouse body weight loss and death”. Besides, in [7] (10 mg/kg s.c. Q3D), the “mice died during the study” value is reported as 83.3%. Moreover, the Dmax at 10 mg/kg in series [8] (sc, single dose 10 mg/kg s.c.) amounted to 99%; in [9] (sc, single dose 10 mg/kg s.c.) it was 86%.

With `CC[C@]12CNc3nnc(-c4ccccc4O)cc3N1C[C@H](Oc1ccc(CN3CCC(c4ccc5c(c4)C(=O)N([C@H]4CCC(=O)NC4=O)C5)CC3)cn1)C2` [Compound 10], the 50% degradation concentration (DC50) in series [1] and in [2] was 0.1 to 1 nM throughout. The Dmax was greater than 90% in series [1] and 50 to 90% in [2].

Consider `C[C@]12CNc3nnc(-c4ccccc4O)cc3N1C[C@H](Oc1ncc(CN3CCN(c4ccc5c(c4)C(=O)N([C@H]4CCC(=O)NC4=O)C5)CC3)cc1F)C2` [Compound 2], for which, in [1], the DC50 fell in the range of 0.1 to 1 nM and the Dmax was greater than 90%. In [2], this compound had a DC50 of 0.1 to 1 nM and a Dmax greater than 90%.

With `CC[C@]12CNc3nnc(-c4ccccc4O)cc3N1C[C@H](Oc1ncc(CN3CCN(c4ccc5c(c4)C(=O)N([C@H]4CCC(=O)NC4=O)C5)CC3)nc1C)C2` [Compound 8], in [1], the DC50 was less than 0.1 nM and the Dmax is greater than 90%. Besides, in series [2], the DC50 lay within 0.1 to 1 nM and the Dmax was greater than 90%.

As for `Cc1cc(C(=O)N2CCN(c3ccc4c(c3)C(=O)N([C@H]3CCC(=O)NC3=O)C4)CC2)cnc1O[C@H]1CN2c3cc(-c4ccccc4O)nnc3NC[C@]2(C)C1` [Compound 5], the figures for the 50% degradation concentration (DC50) in series [1] and in [2] were less than 0.1 nM and 0.1 to 1 nM, respectively. Moreover, the Dmax in series [1] is greater than 90%; in series [2], 50 to 90%.

In [1], `CC[C@]12CNc3nnc(-c4ccccc4O)cc3N1C[C@H](Oc1ncc(C(=O)N3CCN(c4ccc5c(c4)C(=O)N([C@H]4CCC(=O)NC4=O)C5)CC3)cc1C)C2` [Compound 7] gave a DC50 of less than 0.1 nM and a Dmax greater than 90%. In [2], this compound registered a DC50 of 0.1 to 1 nM and a Dmax of 50 to 90%.

As for `CC[C@]12CNc3nnc(-c4ccccc4O)cc3N1C[C@H](Oc1ncc(CN3CCN(c4ccc5c(c4)C(=O)N([C@H]4CCC(=O)NC4=O)C5)CC3)cc1C)C2` [Compound 6], in series [1], the DC50 was less than 0.1 nM and the Dmax was greater than 90%. In [2], the DC50 is less than 0.1 nM and the Dmax was greater than 90%.

In series [1], `Cc1ncsc1-c1ccc([C@H](C)NC(=O)[C@@H]2C[C@@H](O)CN2C(=O)[C@@H](c2cc(OCCN3CCC(N4CCN5c6cc(-c7ccccc7O)nnc6N[C@@H](C)[C@@H]5C4)CC3)no2)C(C)C)cc1` [Compound 11] came in with a DC50 of 0.1 to 1 nM and a Dmax greater than 90%. In series [2], the DC50 lay within 1 to 10 nM and the Dmax is greater than 90%.

With `Cc1cc(CN2CCN(c3ccc4c(c3)C(=O)N([C@H]3CCC(=O)NC3=O)C4)CC2)cnc1O[C@H]1CN2c3cc(-c4ccccc4O)nnc3NC[C@]2(C)C1` [Compound 4], in series [1], the DC50 is less than 0.1 nM and the “SMARCA2 Dmax” value was “A (Dmax>90%)”. For the same compound, in series [2], the half-maximal degradation concentration (DC50) is 0.1 to 1 nM and the “SMARCA4 Dmax” value is recorded as “A (Dmax>90%)”.

In the case of `Cc1ncsc1-c1ccc([C@H](C)NC(=O)[C@@H]2C[C@@H](O)CN2C(=O)[C@@H](c2cc(OCCN3CCC(N4CCN5c6cc(-c7ccccc7O)nnc6N[C@H](C)[C@H]5C4)CC3)no2)C(C)C)cc1` [Compound 13], in series [1], the DC50 was in the range of 0.1 to 1 nM and the Dmax was greater than 90%. In series [2], this compound displayed a DC50 of 1 to 10 nM and a Dmax greater than 90%.

In series [1], `Cc1cc(CN2CCN(c3ccc4c(c3)C(=O)N([C@H]3CCC(=O)NC3=O)C4)CC2)cnc1O[C@H]1CN2c3cc(-c4ccccc4O)nnc3NC[C@]2(C)C1` [Compound 3] yielded a 50% degradation concentration (DC50) of 0.1 to 1 nM and a Dmax greater than 90%. For the same compound, in [2], the DC50 is 0.1 to 1 nM and the “SMARCA4 Dmax” value is on record as “B (50%<Dmax≤90%)”.

In series [1], `Cc1ncsc1-c1ccc([C@H](C)NC(=O)[C@@H]2C[C@@H](O)CN2C(=O)[C@@H](c2cc(OCCN3CCC(N4CCN5c6cc(-c7ccccc7O)nnc6N[C@H](C)[C@@H]5C4)CC3)no2)C(C)C)cc1` [Compound 12] came in with a DC50 of 1 to 10 nM and a Dmax greater than 90%. In [2], this compound registered a DC50 of 1 to 10 nM and a Dmax greater than 90%.

In series [1], `CC[C@]12CNc3nnc(-c4ccccc4O)cc3N1C[C@H](Oc1ccc(CN3CCN(c4ccc5c(c4)C(=O)N([C@H]4CCC(=O)NC4=O)C5)CC3)cn1)C2` [Compound 9] gave a DC50 of less than 0.1 nM and a Dmax greater than 90%. In series [2], this compound gave a DC50 of 0.1 to 1 nM and a Dmax greater than 90%.

Consider `C[C@]12CNc3nnc(-c4ccccc4O)cc3N1C[C@H](Oc1ccc(CN3CCN(c4ccc5c(c4)C(=O)N([C@H]4CCC(=O)NC4=O)C5)CC3)cn1)C2` [Compound 1], for which the values for the half-maximal degradation concentration (DC50) in [1] and in series [2] were less than 0.1 nM and 0.1 to 1 nM, respectively. Further, the Dmax in series [1] and in [2] was greater than 90% in each case. Moreover, in series [5], the tumor growth inhibition result is listed as “did not induce significant tumor growth inhibition”. Besides, the body weight loss result in series [7] (20 mg/kg i.v. infusion QW) is on record as “minimal”. In addition, the mouse deaths entry in series [7] (20 mg/kg i.v. infusion QW) was “no mouse deaths”. Moreover, the Dmax at 20 mg/kg in series [8] (setting [10]) worked out at 98%; in [9] (setting [10]) it was 83%.

By DC50 is commonly meant the midpoint of the concentration-degradation curve. A low value points to a more potent degrader.
